Laboratory results reported in patent US12084459B2, “2-(4-{1-[6-(4-isopropyl-phenyl)-imidazo[2,1-b][1,3,4]thiadiazol-2-yl]-piperidin-4-ylmethyl}-piperazin-1-yl)-ethanol and use thereof” (Urifer Ltd., priority 2020, dated 2024).

Test: toxicity in mice: body weight and observations after IP administration
Type: in vivo
Details: for body weight / body weight change (% wt/wt): female mice
In short: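 Mice (female where stated) received the test compound intraperitoneally on day 1, dissolved in 20% hydroxypropylcyclodextrane at an administration volume of 10 ml/kg. Toxicity was assessed from body weight, body weight change (% wt/wt) and observations of the animals after administration.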

Which results are given for `CC(C)c1ccc(-c2cn3nc(N4CCC(CN5CCN(CCO)CC5)CC4)sc3n2)cc1` [Compound E266, 2-(4-{1-[6-(4-isopropyl-phenyl)-imidazo[2,1-b][1,3,4]thiadiazol-2-yl]-piperidin-4-ylmethyl}-piperazin-1-yl)-ethanol]?
body weight (100 mg/kg IP, day 1): 36.1 g; body weight change (% wt/wt) (100 mg/kg IP, day 1): 0%; body weight (100 mg/kg IP, day 2): 35.7 g; body weight change (% wt/wt) (100 mg/kg IP, day 2): −1.1%; body weight (100 mg/kg IP, day 3): 36.1 g; body weight change (% wt/wt) (100 mg/kg IP, day 3): 0.0%; body weight (100 mg/kg IP, day 4): 35.2 g; body weight change (% wt/wt) (100 mg/kg IP, day 4): −2.5%; body weight (100 mg/kg IP, day 5): 34 g; body weight change (% wt/wt) (100 mg/kg IP, day 5): −5.8%; body weight (100 mg/kg IP, day 6): 33.9 g; body weight change (% wt/wt) (100 mg/kg IP, day 6): −6.1%; body weight (100 mg/kg IP, day 7): 34 g; body weight change (% wt/wt) (100 mg/kg IP, day 7): −5.8%; body weight (100 mg/kg IP, day 8): 33.6 g; body weight change (% wt/wt) (100 mg/kg IP, day 8): −6.9%; body weight (100 mg/kg IP, day 9): 32.4 g; body weight change (% wt/wt) (100 mg/kg IP, day 9): −10.2%; body weight (100 mg/kg IP, day 10): 33.5 g; body weight change (% wt/wt) (100 mg/kg IP, day 10): −7.2%; body weight (100 mg/kg IP, day 11): 32.6 g; body weight change (% wt/wt) (100 mg/kg IP, day 11): −9.7%; body weight (100 mg/kg IP, day 12): 33.4 g; body weight change (% wt/wt) (100 mg/kg IP, day 12): −7.5%; body weight (100 mg/kg IP, day 13): 32.8 g; body weight change (% wt/wt) (100 mg/kg IP, day 13): −9.1%; body weight (100 mg/kg IP, day 14): 32.2 g; body weight change (% wt/wt) (100 mg/kg IP, day 14): −10.8%; body weight (100 mg/kg IP, day 15): 32.4 g; body weight change (% wt/wt) (100 mg/kg IP, day 15): −10.2%; body weight (200 mg/kg IP, day 1): 31.5 g; body weight change (% wt/wt) (200 mg/kg IP, day 1): 0%; body weight (200 mg/kg IP, day 2): 30.5 g; body weight change (% wt/wt) (200 mg/kg IP, day 2): −3.2%; body weight (200 mg/kg IP, day 3): 30.8 g; body weight change (% wt/wt) (200 mg/kg IP, day 3): −2.2%; body weight (200 mg/kg IP, day 4): 30.6 g; body weight change (% wt/wt) (200 mg/kg IP, day 4): −2.9%; body weight (200 mg/kg IP, day 5): 30.6 g; body weight change (% wt/wt) (200 mg/kg IP, day 5): −2.9%; body weight (200 mg/kg IP, day 6): 30.9 g; body weight change (% wt/wt) (200 mg/kg IP, day 6): −1.9%; body weight (200 mg/kg IP, day 7): 31 g; body weight change (% wt/wt) (200 mg/kg IP, day 7): −1.6%; body weight (200 mg/kg IP, day 8): 31.1 g; body weight change (% wt/wt) (200 mg/kg IP, day 8): −1.3%; body weight (200 mg/kg IP, day 9): 30.6 g; body weight change (% wt/wt) (200 mg/kg IP, day 9): −2.9%; body weight (200 mg/kg IP, day 10): 31.2 g; body weight change (% wt/wt) (200 mg/kg IP, day 10): −1.0%; body weight (200 mg/kg IP, day 11): 29.9 g; body weight change (% wt/wt) (200 mg/kg IP, day 11): −5.1%; body weight (200 mg/kg IP, day 12): 30.6 g; body weight change (% wt/wt) (200 mg/kg IP, day 12): −2.9%; body weight (200 mg/kg IP, day 13): 30.6 g; body weight change (% wt/wt) (200 mg/kg IP, day 13): −2.9%; body weight (200 mg/kg IP, day 14): 30.8 g; body weight change (% wt/wt) (200 mg/kg IP, day 14): −2.2%; body weight (200 mg/kg IP, day 15): 30.5 g; body weight change (% wt/wt) (200 mg/kg IP, day 15): −3.2%; body weight (400 mg/kg IP, day 1): 31.1 g; body weight change (% wt/wt) (400 mg/kg IP, day 1): 0%; body weight (400 mg/kg IP, day 2): 30.5 g; body weight change (% wt/wt) (400 mg/kg IP, day 2): −1.9%; body weight (400 mg/kg IP, day 3): 29.6 g; body weight change (% wt/wt) (400 mg/kg IP, day 3): −4.8%; body weight (400 mg/kg IP, day 4): 28.6 g; body weight change (% wt/wt) (400 mg/kg IP, day 4): −8.0%; body weight (400 mg/kg IP, day 5): 28.4 g; body weight change (% wt/wt) (400 mg/kg IP, day 5): −8.7%; body weight (400 mg/kg IP, day 6): 28.5 g; body weight change (% wt/wt) (400 mg/kg IP, day 6): −8.4%; body weight (400 mg/kg IP, day 7): 28.4 g; body weight change (% wt/wt) (400 mg/kg IP, day 7): −8.7%; body weight (400 mg/kg IP, day 8): 28.7 g; body weight change (% wt/wt) (400 mg/kg IP, day 8): −7.7%; body weight (400 mg/kg IP, day 9): 29 g; body weight change (% wt/wt) (400 mg/kg IP, day 9): −6.8%; body weight (400 mg/kg IP, day 10): 29.3 g; body weight change (% wt/wt) (400 mg/kg IP, day 10): −5.8%; body weight (400 mg/kg IP, day 11): 29 g; body weight change (% wt/wt) (400 mg/kg IP, day 11): −6.8%; body weight (400 mg/kg IP, day 12): 29.4 g; body weight change (% wt/wt) (400 mg/kg IP, day 12): −5.5%; body weight (400 mg/kg IP, day 13): 29.8 g; body weight change (% wt/wt) (400 mg/kg IP, day 13): −4.2%; body weight (400 mg/kg IP, day 14): 29.8 g; body weight change (% wt/wt) (400 mg/kg IP, day 14): 4.2%; body weight (400 mg/kg IP, day 15): 29.2 g; body weight change (% wt/wt) (400 mg/kg IP, day 15): −6.1%; toxicity (male and female mice, 100-400 mg/kg IP in 20% hydroxypropylcyclodextrane, 10 ml/kg): not toxic
